Measurements taken from patent publication USRE39420E1, “1,2-Diphenylpyrrole derivatives, their preparation and their therapeutic uses” (Sankyo Company, Limited, priority 1996, dated 2006).

Columns and labels:
[1] = test system: IL-1β production in human peripheral monocytes; assay: Inhibitory effect on IL-1β production in LPS-stimulated human peripheral monocytes; assay type: cell-based; settings: Monocyte, LPS 10 μg/ml, 20 hours
Method: (§1) (1) Peripheral blood was collected from healthy human volunteers in the presence of heparin. After mixing it with an equal volume of phosphate-buffered saline (PBS, Nissui Pharmaceutical), the mixture was layered onto Ficoll Paque medium (Pharmacia) at the rate of 2:1 and centrifuged at 520×g at 25° C. for 20 minutes. After centrifugation, the monocyte layer was removed and suspended in RPMI 1640 (Nissui Pharmaceutical) containing 10% fetal calf serum (FCS). The monocytes were washed once with the same medium, placed in a plastic Petri dish, pre-treated with human plasma and incubated for 2 hours in the presence of 5% CO2 to cause them to adhere to the dish. After incubation, the Petri dish was washed twice with PBS to remove the non-adherent cells. Thereafter, PBS containing 5% FCS and 0.2% EDTA was added to the Petri dish and the dish was allowed to stand undisturbed for 15 minutes at 4° C. The monocytes were recovered from the dish by pipetting. The cells were finally suspended in RPMI 1640 at a concentration of 1.25×10^5 cells/ml. (2) Culture of Human Monocytes
(§2) A 40 μl solution of the test compound and 40 μl of lipopolysaccharide (LPS; E. coli, 0.26:B6, Difco), adjusted to a final concentration of 10 μg/ml, were added to 320 μl of cell suspension. The resulting mixture was then cultured for 20 hours in the presence of 5% CO2 and the supernatant was removed at the end of cultivation to assay IL-1β and TNFα. The test compound was dissolved in dimethyl sulfoxide and diluted by a factor of 100 with FCS to reach 10 times the final concentration (the final concentrations of dimethyl sulfoxide and FCS were 0.1% and 10%, respectively).
(§3) The amount of IL-1β was measured with a commercially available ELISA kit (Cayman), after diluting the supernatant medium by a factor of 15 or 30 with the ELISA buffer. The amount of TNFα was similarly measured by a ELISA kit (Genzyme) after diluting the supernatant by a factor of 2.
(§4) The IC50 was calculated from the regression line determined by the inhibition rates and the concentrations of the test compound.

[2] = test system: yeast-inflamed pain in rats; assay: Analgesic effect on yeast-inflamed pain in rats (Randall-Selitto method); assay type: in vivo, Wistar-Imamichi rats; settings: Rattus norvegicus, oral, pain threshold 0.5, 1 and 2 hours after administration, read-out: Efficacy Rate (No. of animals in which drug was effective/No. of animals used in test) (converted)
Method: The compound was suspended in 0.5%tragacanth and administered orally at a volume of 5 ml/kg. The control group was administered with 0.5% tragacanth only as a vehicle.
Wistar-Imamichi rats (males, 5 week old, body weights: 80-100 g) were used in this test.
The test was conducted in accordance with the method of Winter and Flataker [J. Pharmacol. Exp. Ther. 150, 165-171, (1965)], which is a modification of the original method of Randall and Selitto [Arch. Int. Pharmacodyn. Ther. 111, 405-419, (1957)]. The rats were fasted for 16 hours prior to use. Inflammation was induced by subcutaneous injection of 0.1 ml of a suspension of 20% beer yeast (Sigma) into the right hind footpad of the animal. After 4.5 hours, increasing pressure was applied to the inflamed footpad at a constant speed using an Analgesy meter (Trade mark) (Ugo-Basile Co.).
First the average of pain threshold values at each time point (0.5, 1, and 2 hr) was calculated in a control group. If a pain threshold value exceeded 2 times the control average value at the same time point even once in the drug-treated groups, then the animal was considered to indicate efficacy. Efficacy rates of the drug were estimated by the evaluation method of Blake [J. Pharm. Pharm. 19, 367-373, (1967)].

[3] = test system: Carrageenan-induced Paw Edema in rats; assay: Carrageenan-induced paw edema test; assay type: in vivo, Wistar-Imamichi rats; settings: Rattus norvegicus, oral, 3 hours after carrageenan, read-out: Inhibition Rate (%)
Method: The same test compounds were subjected to the test as those in the Randall-Selitto test of Experiment 3. Wistar-Imamichi rats (males, 6 week old, body weights: 110-120 g) were used in this test.
The method of Winter, et al. [Proc. Soc. Exp. Biol. Med. 111, 544-547, (1962)] was slightly modified to perform the test [Sankyo Annual Research Report 39, 77-111, (1989)]. The rats were fasted for 16 hours prior to use. Inflammatory edema was induced by the subcutaneous injection of 0.05 ml of a 1% carrageenan (Viscarin 402) solution into the right hind paw of the animal. The test compounds were administered orally 30 minutes before injection of carrageenan. The volume of the right hind foot was measured with a Plethysmometer (Trade mark) (Ugo-Basile Co.) just before administration of the test compound and 3 hours after injection of carrageenan to determine the edema intensity [(right foot volume after 3 hours/right foot volume before injection)-1].

[4] = test system: TNFα production in human peripheral monocytes; assay: Inhibitory effect on TNFα production in LPS-stimulated human peripheral monocytes; assay type: cell-based; settings: Monocyte, LPS 10 μg/ml, 20 hours
Method: as §1, §2, §3, §4

[5] = test system: scald-induced Pain in rats; assay: Scald-induced pain test; assay type: in vivo, Wistar-Imamichi rats; settings: oral; pain response time, mean of 1 and 2 hours after dosing
Method: The test was conducted in accordance with the method of Iizuka and Tanaka [Jpn. J. Pharmacol. 70, 697, (1967)]. The test compound was administered in the same manner as in Experiment 3. Male Wistar-Imamichi rats (4-5 week old, body weights: approximately 100 g) were used after fasting for 16 hours. The right hind foot of the animal was immersed in hot water at 57° C. for 6 seconds to induce scald under ether-anesthesia. Two hours later, the scald foot of the rat was irritated by immersing in hot water at 40° C. for 5 seconds, and the animal was returned to the cage. […] Lifting up the scalded foot or licking it without coming in contact with the metal cage were considered to be pain responses. Pain response time was determined as the total time of the pain response during the 30-second observation period. […] Pain response time was again measured 1 and 2 hours after dosing and the mean value was determined. Using the mean values, inhibition rates were calculated relative to the control group. ID50 was calculated from the regression line determined by the inhibition rates and the doses.

gastric mucosa = assay: Irritative effect on gastric mucosa; assay type: in vivo, Wistar rats; settings: oral; dose producing 50% incidence of gastric ulcers, 3.5 hours after dosing
Method: Experiments were performed according to the method described by Jahn and Adrian [Arzneim.-Forsch. 19, 36, (1969)]. Male Wistar rats weighing approximately 120 g were fasted for 16 hours before the experiment. The drugs were administered orally to rats as described in Experiment 3. Three and the half hours after dosing, the animals were killed under ether-anesthesia and the stomachs were placed into 1% of formalin. The stomach was opened by cutting along the greater curvature and the number and length of lesions were counted under a microscope (6.3×10). The ulcerogenicity in each animal was assessed according to Hitchens et. al. [Pharmacologist 9, 242, (1967)]. Incidence was determined as the rate of rats with 4 or more ulcers of more than 0.5 mm length, and UD50's (doses producing 50% incidence) were calculated from the incidence and the dose by probit (=probability unit) method.

yeast-induced fever = assay: Antipyretic effect on yeast-induced fever; assay type: in vivo, Wistar-Imamichi rats; settings: Dose: 0.4 mg/kg, oral; mean of 1 and 2 hours after dosing
Method: The method of Roszkowski et al. [J. Pharmacol. Exp. Ther. 179, 114, (1971)] was slightly modified to perform the test. The test compound was administered in the same manner as in Experiment 3. Male Wistar-Imamichi rats (6 week old, body weights: approximately 120 g) were used in the test. Yeast (Brewer's yeast, Sigma) was suspended in physiological saline to a concentration of 25%, finely crushed in an agate mortar, and injected subcutaneously into the backs of the rats under ether-anesthesia at a volume of 2 ml/rat. The rats were fasted after the injection of yeast. On the following day (19 hours after the yeast injection), a catheter-type thermistor thermometer (Japan Koden, MGA III) was inserted approximately 5 cm into the rectum to measure the temperature of the animals. […] Rectal temperatures were measured 1 and 2 hours after administration of the test compound, and fever temperature was calculated by subtracting the normal temperature of healthy animals measured simultaneously. Inhibition rate of the group treated with the compound relative to the control group was calculated by using the mean value at 1 and 2 hours after dosing.

[6] = test system: LTB4 production from human peripheral monocytes; assay: Inhibitory effect on LTB4 production from human peripheral monocytes; assay type: cell-based; settings: Monocyte, LTB4 in culture supernatant, ELISA
Method: The isolation of monocytes was carried out as described in Experiment 2-(1).
The cell culture was carried out as described in Experiment 2-(2).
The supernatant of the culture medium after incubation was subjected to the ELISA assay (Cayman). IC50 values were calculated by the least square method from the regression line determined by the inhibition rates and the doses.

| Compound | responders at 12.5 mg/kg [2] | inhibition in vivo at 50 mg/kg [3] | inhibition at 10 µM [4] | also measured |
| --- | --- | --- | --- | --- |
| CS(=O)(=O)c1ccc(-c2cccn2-c2ccc(F)cc2F)cc1 [Example 7, 1-(2,4-Difluorophenyl)-2-(4-methylsulfonylphenyl) pyrrole] | 100% | 56% |  | inhibition at 10 µM [1]: 42.6% |
| COc1ccc(-c2cc(Cc3ccc(OC)c(OC4CCCC4)c3)cn2-c2ccc(S(N)(=O)=O)cc2)cc1 [Example 81, 4-(3-Cyclopentyloxy-4-methoxybenzyl)-2-(4-methoxyphenyl)-1-(4-sulfamoylphenyl)pyrrole] |  |  | 46.1% |  |
| CS(=O)(=O)c1ccc(-c2cc(C(F)F)cn2-c2ccc(F)cc2)cc1 [Example 49, 1-(4-Fluorophenyl)-4-difluoromethyl-2-(4-methylsulfonylphenyl)pyrrole] |  |  | 40.9% |  |
| CCOc1ccc(-c2cc(C)cn2-c2ccc(S(N)(=O)=O)cc2)cc1 [Example 67, 2-(4-Ethoxyphenyl)-4-methyl-1-(4-sulfamoylphenyl) pyrrole] | 100% | 64% |  | ID50 [5]: 1.6 mg/kg; UD50 (gastric mucosa): >100 mg/kg; Inhibition Rate (%) (yeast-induced fever): 78% |
| CS(=O)(=O)c1ccc(-c2ccc(C(F)(F)F)n2-c2ccc(F)cc2)cc1 [Example 44, 5-Trifluoromethyl-1-(4-fluorophenyl)-2-(4-methylsulfonylphenyl)pyrrole] |  |  |  | melting point: 136 to 139 °C |
| CCCOc1ccc(-c2cc(C)cn2-c2ccc(S(N)(=O)=O)cc2)cc1 [Example 68, 4-Methyl-2-(4-propoxyphenyl)-1-(4-sulfamoylphenyl)pyrrole] |  |  | 42.6% |  |
| CSc1ccc(-n2c(C)ccc2-c2ccc(S(N)(=O)=O)cc2)cc1 [Example 90, 5-Methyl-1-(4-methylthiophenyl)-2-(4-sulfamoylphenyl)pyrrole] |  | 64% |  | inhibition at 10 µM [1]: 62.2% |
| CS(=O)(=O)c1ccc(-c2ccc(F)n2-c2ccc(F)cc2)cc1 [Example 41, 5-Fluoro-1-(4-fluorophenyl)-2-(4-methylsulfonylphenyl)pyrrole] |  | 60% |  | inhibition at 10 µM [1]: 51.2% |
| Cc1cc(-c2ccc(C)c(C)c2)n(-c2ccc(S(N)(=O)=O)cc2)c1 [Example 78, 4-Methyl-2-(3,4-dimethylphenyl)-1-(4-sulfamoylphenyl)pyrrole] | 100% | 66% |  | UD50 (gastric mucosa): >100 mg/kg; IC50 [6]: 310 nM |
| COc1ccc(-n2cccc2-c2ccc(S(C)(=O)=O)cc2)cc1F [Example 54, 1-(3-Fluoro-4-methoxyphenyl)-2-(4-methylsulfonylphenyl)pyrrole] |  |  | 54.7% |  |
| CSc1ccc(-n2cc(C)cc2-c2ccc(S(N)(=O)=O)cc2)cc1 [Example 84, 4-Methyl-1-(4-methylthiophenyl)-2-(4-sulfamoylphenyl)pyrrole] | 100% | 66% |  | UD50 (gastric mucosa): >100 mg/kg; Inhibition Rate (%) (yeast-induced fever): 64% |
